Tests used:
[1] = system: Brewer's yeast-induced hyperalgesia (pain response); assay: Brewer's Yeast Hyperalgesia Assay in the rat; assay type: in vivo, rat (female Sprague-Dawley); details: 3 mg/kg p.o.
Procedure: In this assay, which is sensitive to inhibition by lipoxygenase and cyclooxygenase inhibitors, compounds of formula I reduced the pain response induced by Brewer's yeast (Table 1a).
Groups of 10 female Sprague-Dawley rats, weighing 35-50 grams (Charles River Breeding Laboratories), were fasted overnight prior to testing. For each animal, 0.1 ml of the edema-inducing Brewer's yeast suspension (5% homogenate in physiological saline) was injected into the right hindpaw. Pain threshold was measured by applying pressure to the plantar surface of the hindpaw by means of a compressed air driven piston with a 2 mm. tip. Testing was carried out 3, 4, and 5 hours after the yeast injection. Compounds, prepared as homogenates in either 1% methylcellulose or aqueous vehicle, were administered orally 60 minutes before testing. A group of vehicle treated control animals was included in each experiment. Squeak pressure thresholds were measured and recorded for the compound and vehicle-treated groups of rats 3, 4, and 5 hours after administration of the Brewer's yeast (60 minutes after compound treatment). The estimation of analgesia was as follows: 1. the mean response pressure for the daily vehicle control group in the normal and inflammed foot was calculated; 2. for each compound treatment group, the number of animals with response pressures equal to or greater than 25 mm Hg was noted. These animals were considered to be analgesic.

PMN 5-lipoxygenase = target: T1, PMN 5-lipoxygenase (Rattus norvegicus, UniProt P12527); assay: Inhibition of PMN 5-lipoxygenase in the rat (LTB4 by RIA, A23187-stimulated PMN); assay type: cell-based, rat (male Sprague-Dawley); details: for inhibition at 30 µg/mL: dose 0.03 mg/ml; for inhibition at 1000 µg/mL: dose 1 mg/ml; for inhibition at 10 µg/mL: dose 0.01 mg/ml
T1 sequence (P12527 1-673): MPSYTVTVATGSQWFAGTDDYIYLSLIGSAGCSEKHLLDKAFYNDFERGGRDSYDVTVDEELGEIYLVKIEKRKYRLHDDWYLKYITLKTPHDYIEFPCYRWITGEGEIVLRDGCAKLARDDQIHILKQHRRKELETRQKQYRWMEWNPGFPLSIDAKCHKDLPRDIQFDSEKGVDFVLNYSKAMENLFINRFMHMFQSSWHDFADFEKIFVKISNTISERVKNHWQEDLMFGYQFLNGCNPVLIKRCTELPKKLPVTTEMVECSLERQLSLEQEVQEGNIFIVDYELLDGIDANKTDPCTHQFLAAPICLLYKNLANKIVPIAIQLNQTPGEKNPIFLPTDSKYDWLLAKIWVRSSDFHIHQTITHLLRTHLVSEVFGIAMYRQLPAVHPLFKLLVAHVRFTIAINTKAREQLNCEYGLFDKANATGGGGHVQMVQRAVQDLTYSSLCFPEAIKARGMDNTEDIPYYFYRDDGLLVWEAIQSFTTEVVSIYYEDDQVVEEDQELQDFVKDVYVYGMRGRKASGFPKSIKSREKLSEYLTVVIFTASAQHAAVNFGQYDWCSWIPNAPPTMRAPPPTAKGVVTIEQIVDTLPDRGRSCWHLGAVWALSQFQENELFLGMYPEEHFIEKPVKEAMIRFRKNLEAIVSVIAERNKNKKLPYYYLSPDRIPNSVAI
Procedure: 2. Inhibition of PMN 5-lipoxygenase in the rat Methods
Male Sprague-Dawley rates under ether anesthesia were injected i.p. with 8 mls of 12% aqueous sodium caseinate. After 15-24 hours the animals were sacrificed with CO2 and the peritoneal cavities were lavaged with Eagles MEM with Earles salts and containing L-glutamine and 30 mM HEPES. The pH was adjusted to 7.4. The lavage fluid was centrifuged for 5 minutes at 350×g at room temperature. The cells were resuspended in fresh medium and filtered through lens paper. The cells were pelleted again and reconstituted to concentration of 1×10^7 cells/ml with fresh medium.
The experiments were run as follows: 0.5μ of test compound in DMSO or 0.5 μl DMSO alone was added to reaction tubes. 0.5 ml aliquots of the stirred PMN suspension maintained at 37° C. were then added. After 2 minutes, 0.5 μl of 10 mM A23187 (final concentration=10 μM) or 0.5 μl of DMSO was added and allowed to incubate for 4 additional minutes at 37° C. The reaction was stopped by the addition of 0.5 ml of cold methanol. The precipitated proteins were removed by centrifugation and the supernatant fluid was analyzed via RIA or HPLC.
Radioimmunoassay determinations of LTB4
Radioimmunoassays were performed using the dextran-coated charcoal binding method as described by J. L. Humes in Methods for Studying Mononuclear Phagocytes (Eds. D. Adams et al.) p. 641, Academic Press, N.Y. (1981).
Aliquots, 2 μl, of the supernatant fluids were added to assay tubes and incubated for 10 minutes at 37° C. to remove methanol. Fifty μl of tissue culture medium M-199 containing 1 percent heat-inactivated-porcine serum was then added to each tube. Standard amounts of LTB4 were also prepared in this medium so that 50 μl aliquots contained 25-1000 pg. Antisera to LTB4 was diluted 1:3000 with 10 mM potassium phosphate, pH 7.3 containing 1 mM ethylenediaminetetracetic acid and 0.25 mM thimerasol (PET buffer). Aliquots, 100 μl, of the diluted antisera were added to both standard and unknown tubes and incubated at room temperature for 0.5 hour. (5,6,8,9,11,12,14,15-^3 H)-LTB4 (Amersham, 150 Ci/mMol) was diluted with PET to a concentration of 1 nCi/ml. Aliquots, 100 μl , were added and the mixture incubated for 2 hours at room temperature or alternatively overnight at 4° C. One ml of dextran-coated charcoal solution is added to all tubes. After centrifugation for 10 minutes at 1000×g the radioactivity in the supernatant fluid was determined.
The dextran-coated charcoal removes the unbound ^3 H-LTB4. Therefore in this procedure the antibody-bound-^3 H-LTB4 is measured. The RIA^4 determinations are performed on single samples.

SMILES	inhibition at 37 µg/mL (PMN 5-lipoxygenase; dose 0.037 mg/ml) [%]	inhibition at 100 µg/mL (PMN 5-lipoxygenase; dose 0.1 mg/ml) [%]	inhibition at 300 µg/mL (PMN 5-lipoxygenase; dose 0.3 mg/ml) [%]	inhibition at 1000 µg/mL (PMN 5-lipoxygenase) [%]	also measured
COc1ccc2c(OC(C)=O)c(-c3ccccc3)sc2n1 [R=(CO)CH3, X1=6-OCH3, X2=H]	–	–	–	–	% Inhibition (yeast hyperalgesia) [1]: 60%
CC(=O)Oc1c(-c2ccccc2)sc2ccncc12 [N=5, R=(CO)CH3, X1=H, X2=H, 3-Acetyloxy-5-aza-2-phenylbenzo[b]thiophene]	58	97	100	–	–
COc1ccc(-c2sc3ncccc3c2O)cc1 [N=7, R=H, X1=H, X2=p-OCH3]	24	100	–	–	–
COc1cccc(-c2sc3ncccc3c2O)c1 [N=7, R=H, X1=H, X2=m-OCH3, 7-Aza-3-hydroxy-2-(3-methoxyphenyl)-benzo[b]thiophene]	–	100	100	–	inhibition at 30 µg/mL (PMN 5-lipoxygenase): 76%
COc1ccc(-c2sc3c[n+]([O-])ccc3c2OC(C)=O)cc1 [drawing 25, N=6, R=(CO)CH3, X1=H]	–	33	49	90	–
CC(=O)Oc1c(-c2ccccc2)sc2ncccc12 [N=7, R=(CO)CH3, X1=H, X2=H, 7-aza-3-acetyloxy-2-phenyl-benzo[b]thiophene]	95	100	–	–	inhibition at 10 µg/mL (PMN 5-lipoxygenase): 40%
CC(=O)Oc1c(-c2ccccc2)sc2nccc(Cl)c12 [N=7, R=(CO)CH3, X1=4-Cl, X2=H]	22	32	–	100	–
COc1ccc(-c2sc3cnccc3c2O)cc1 [N=6, R=H, X1=H, X2=p-OCH3, 3-Hydroxy-2-(4-methoxyphenyl)-6-azabenzo[b]thiophene]	–	79	100	–	inhibition at 30 µg/mL (PMN 5-lipoxygenase): 45%
COc1ccc(-c2sc3ccncc3c2OC(C)=O)cc1 [N=5, R=(CO)CH3, X1=H, X2=p-OCH3, 3-Acetyloxy-5-aza-2-(4-methoxyphenyl)benzo[b]thiophene]	22	80	99	–	% Inhibition (PMN 5-lipoxygenase) (PMN 5-lipoxygenase; dose 0.1 mg/ml): 60%; % Inhibition (PMN 5-lipoxygenase) (PMN 5-lipoxygenase; dose 0.3 mg/ml): 100%
CC(=O)Oc1c(-c2ccc(F)cc2)sc2ncccc12 [N=7, R=(CO)CH3, X1=H, X2=p-F, 7-aza-3-acetyloxy-2-(4-fluorophenyl)-benzo[b]thiophene]	49	100	–	–	inhibition at 10 µg/mL (PMN 5-lipoxygenase): 24%
Oc1c(-c2ccc(F)cc2)sc2ncccc12 [N=7, R=H, X1=H, X2=p-F]	88	99	100	–	inhibition at 10 µg/mL (PMN 5-lipoxygenase): 32%
COc1ccc(-c2sc3ccncc3c2O)cc1 [N=5, R=H, X1=H, X2=p-OCH3, 5-Aza-3-hydroxy-2-(4-methoxyphenyl)-benzo[b]thiophene]	–	–	100	–	inhibition at 400 µg/mL (PMN 5-lipoxygenase; dose 0.4 mg/ml): 63%
COc1ccc(-c2sc3ncccc3c2OC(C)=O)cc1 [R=(CO)CH3, X1=H, X2=p-OCH3]	–	–	–	–	% Inhibition (yeast hyperalgesia) [1]: 10%
CC(=O)Oc1c(-c2ccc(C#N)cc2)sc2ncccc12 [N=7, R=(CO)CH3, X1=H, X2=p-CN]	39	77	100	–	–
CC(=O)Oc1c(-c2ccccc2)sc2ncccc12 [R=(CO)CH3, X1=H, X2=H, 7-aza-3-acetyloxy-2-phenyl-benzo[b]thiophene]	–	–	–	–	% Inhibition (yeast hyperalgesia) [1]: 60%
COc1ccc(-c2sc3cccnc3c2OC(C)=O)cc1 [N=4, R=(CO)CH3, X1=H, X2=p-OCH3, 3-Acetyloxy-2-(4-methoxyphenyl)-4-azabenzo[b]thiophene]	–	21	73	100	–
CC(=O)Oc1c(-c2ccccc2)sc2nc(Cl)ccc12 [N=7, R=(CO)CH3, X1=6-Cl, X2=H]	–	63	82	100	–
CC(=O)Oc1c(-c2ccccc2)sc2nc(Cl)ccc12 [R=(CO)CH3, X1=6-Cl, X2=H]	–	–	–	–	% Inhibition (yeast hyperalgesia) [1]: 40%
COc1cccc(-c2sc3ncccc3c2OC(C)=O)c1 [N=7, R=(CO)CH3, X1=H, X2=m-OCH3]	52	97	100	–	–
Oc1c(-c2cccnc2)sc2ncccc12 [drawing 24, N=7, R=H, X1=H, X2=H]	–	39	94	98	inhibition at 30 µg/mL (PMN 5-lipoxygenase): 0%
COc1ccccc1-c1sc2ncccc2c1OC(C)=O [N=7, R=(CO)CH3, X1=H, X2=o-OCH3]	–	73	100	–	inhibition at 30 µg/mL (PMN 5-lipoxygenase): 33%
COc1ccc(-c2sc3ncccc3c2OC(C)=O)cc1 [N=7, R=(CO)CH3, X1=H, X2=p-OCH3]	59	100	–	–	% Inhibition (PMN 5-lipoxygenase) (PMN 5-lipoxygenase; dose 0.037 mg/ml): 70%
CC(=O)Oc1c(-c2ccc(C(F)(F)F)cc2)sc2ncccc12 [N=7, R=(CO)CH3, X1=H, X2=p-CF3]	–	61	100	100	–
COc1ccc(-c2sc3ncccc3c2O)cc1 [R=H, X1=H, X2=p-OCH3]	–	–	–	–	% Inhibition (yeast hyperalgesia) [1]: 60%
COCC(=O)Oc1c(-c2ccccc2)sc2ncccc12 [R=(CO)CH2 OCH3, X1=H, X2=H]	–	–	–	–	% Inhibition (yeast hyperalgesia) [1]: 50%
CC(C)(C)c1ccc2c(O)c(-c3ccccc3)sc2n1 [N=7, R=H, X1=t-Bu, X2=H, 6-(1,1-dimethylethyl)-3-hydroxy-2-phenyl-7-azabenzo[b]thiophene]	–	53	98	98	–
COc1ccc(-c2sc3cc(C)nc(C)c3c2OC(C)=O)cc1	–	45	75	–	inhibition at 30 µg/mL (PMN 5-lipoxygenase): 4%
Cc1cc2sc(-c3ccccc3)c(O)c2c(C)n1 [N=5, R=H, X1=4-CH3,6-CH3, X2=H]	–	43	90	99	–
Oc1c(-c2ccccc2)sc2ncccc12 [N=7, R=H, X1=H, X2=H, 3-Hydroxy-2-phenyl-7-azabenzo[b]thiophene]	–	100	–	–	inhibition at 12 µg/mL (PMN 5-lipoxygenase; dose 0.012 mg/ml): 32%
CC(=O)Oc1c(-c2ccccc2)sc2nc(C(C)(C)C)ccc12 [N=7, R=(CO)CH3, X1=t-Bu, X2=H, 3-Acetoxy-6-(1,1-dimethylethyl)-2-phenyl-7-azabenzo[b]thiophene]	–	34	70	95	inhibition at 30 µg/mL (PMN 5-lipoxygenase): 23%

From patent publication US4904672A, “Derivatives of 3-hydroxyazabenzo[b]thiophene useful as 5-lipoxygenase inhibitors” (Merck & Co., Inc., priority 1988, dated 1990)
